Where a SMILES comes first, the peptide text is derived from it.
Target: T1, purified I-E^k molecules (Mus musculus, UniProt P04224+P04231)
T1 sequence (P04224 26-255): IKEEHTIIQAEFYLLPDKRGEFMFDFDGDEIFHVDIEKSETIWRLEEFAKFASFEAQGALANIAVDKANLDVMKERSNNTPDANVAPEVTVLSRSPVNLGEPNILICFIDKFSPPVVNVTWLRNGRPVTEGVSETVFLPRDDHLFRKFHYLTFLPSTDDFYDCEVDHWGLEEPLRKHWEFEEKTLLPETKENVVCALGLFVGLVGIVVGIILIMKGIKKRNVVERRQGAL
T1 sequence (P04231 1-232): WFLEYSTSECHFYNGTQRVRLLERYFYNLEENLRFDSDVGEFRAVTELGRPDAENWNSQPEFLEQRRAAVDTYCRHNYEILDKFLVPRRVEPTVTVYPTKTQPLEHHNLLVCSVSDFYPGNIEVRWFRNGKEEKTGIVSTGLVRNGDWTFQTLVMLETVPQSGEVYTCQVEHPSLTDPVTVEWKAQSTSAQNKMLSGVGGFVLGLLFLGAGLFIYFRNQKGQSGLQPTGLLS
Experiment: I-E^k binding assay

## CC[C@H](C)[C@H](NC(=O)[C@H](C)NC(=O)[C@H](C)NC(=O)[C@H](C)NC(=O)[C@H](C)NC(=O)[C@H](C)NC(=O)[C@H](C)NC(=O)[C@H](C)N)C(=O)N[C@@H](C)C(=O)N[C@@H](Cc1ccc(O)cc1)C(=O)N[C@@H](C)C(=O)N[C@@H](CCCCN)C(=O)N[C@@H](CCC(N)=O)C(=O)N[C@@H](C)C(=O)N[C@H](C(=O)N[C@@H](CCCCN)C(=O)O)[C@@H](C)O [pMCC-A] (H-AAAAAAAIAYAKQATK-OH)
  IC50: 36 nM
